Laboratory results published in ChEMBL document CHEMBL4043199, “Synthesis and optimization of 4,5,6,7-tetrahydrooxazolo[4,5-c]pyridines as potent and orally-active metabotropic glutamate receptor 5 negative allosteric modulators” (Bioorg Med Chem Lett, 2017).
Converted amounts (≈) assume the structure as drawn. The source made the active and inactive calls. The rule behind the calls is not given here.

Key:
[1] = target: Metabotropic glutamate receptor 5 (Homo sapiens, UniProt P41594); experiment: Negative allosteric modulation of human recombinant mGluR5 expressed in HEK293 cells assessed as inhibition of glutamate-induced calcium mobilization preincubated for 2 mins followed glutamate addition measured by fluorescence assay; assay type: functional, cell-based
Chain of Metabotropic glutamate receptor 5 (P41594 whole entry): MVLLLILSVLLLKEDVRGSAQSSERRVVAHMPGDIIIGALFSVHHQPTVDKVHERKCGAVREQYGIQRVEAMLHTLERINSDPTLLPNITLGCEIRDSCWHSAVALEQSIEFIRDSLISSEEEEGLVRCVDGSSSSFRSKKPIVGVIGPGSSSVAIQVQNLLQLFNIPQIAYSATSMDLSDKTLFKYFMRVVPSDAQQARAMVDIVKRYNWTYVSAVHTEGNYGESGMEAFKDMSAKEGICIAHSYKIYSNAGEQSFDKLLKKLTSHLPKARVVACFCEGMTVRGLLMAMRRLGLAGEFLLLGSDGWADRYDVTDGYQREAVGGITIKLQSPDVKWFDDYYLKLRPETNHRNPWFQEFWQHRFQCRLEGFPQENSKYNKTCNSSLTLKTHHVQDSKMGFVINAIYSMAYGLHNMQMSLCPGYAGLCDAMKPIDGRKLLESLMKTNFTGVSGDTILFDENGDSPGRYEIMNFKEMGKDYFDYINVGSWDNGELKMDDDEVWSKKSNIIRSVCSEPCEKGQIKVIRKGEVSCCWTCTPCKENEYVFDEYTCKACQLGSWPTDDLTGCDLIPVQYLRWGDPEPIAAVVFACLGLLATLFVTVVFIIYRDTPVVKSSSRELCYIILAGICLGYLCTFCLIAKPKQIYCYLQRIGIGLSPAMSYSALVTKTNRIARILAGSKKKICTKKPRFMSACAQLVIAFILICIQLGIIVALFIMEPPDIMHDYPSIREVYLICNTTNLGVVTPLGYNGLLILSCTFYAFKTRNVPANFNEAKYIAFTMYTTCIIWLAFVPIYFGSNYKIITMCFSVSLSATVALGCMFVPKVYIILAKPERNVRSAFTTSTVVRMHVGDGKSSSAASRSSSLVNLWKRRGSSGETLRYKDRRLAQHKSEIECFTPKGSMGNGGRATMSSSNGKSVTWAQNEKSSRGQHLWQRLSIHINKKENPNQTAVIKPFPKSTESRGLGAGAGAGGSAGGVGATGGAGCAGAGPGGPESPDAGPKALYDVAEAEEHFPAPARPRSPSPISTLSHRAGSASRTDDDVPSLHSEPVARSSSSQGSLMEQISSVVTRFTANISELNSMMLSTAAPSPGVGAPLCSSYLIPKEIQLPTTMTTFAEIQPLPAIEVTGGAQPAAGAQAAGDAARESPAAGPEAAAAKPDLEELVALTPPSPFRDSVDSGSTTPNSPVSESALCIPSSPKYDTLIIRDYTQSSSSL

[2] = Metabolic stability in human hepatic microsomes assessed as parent compound remaining at 1 uM after 30 mins in presence of NADPH by LC-MS/MS analysis relative to control; assay type: ADME, Microsome; settings: liver microsomes, read-out: Stability
[3] = Metabolic stability in rat hepatic microsomes assessed as parent compound remaining at 1 uM after 30 mins in presence of NADPH by LC-MS/MS analysis relative to control; assay type: ADME, Microsome; settings: liver microsomes, read-out: Stability
[4] = Aqueous solubility of compound at pH 7.4; assay type: physicochemical; settings: aqueous medium
[5] = target: T1, Cytochrome P450 1A2 (Homo sapiens, UniProt P05177); experiment: Inhibition of CYP1A2 in human liver microsomes using phenacetin as substrate after 10 mins by LC-MS/MS analysis; assay type: ADME
T1 sequence (P05177 whole entry): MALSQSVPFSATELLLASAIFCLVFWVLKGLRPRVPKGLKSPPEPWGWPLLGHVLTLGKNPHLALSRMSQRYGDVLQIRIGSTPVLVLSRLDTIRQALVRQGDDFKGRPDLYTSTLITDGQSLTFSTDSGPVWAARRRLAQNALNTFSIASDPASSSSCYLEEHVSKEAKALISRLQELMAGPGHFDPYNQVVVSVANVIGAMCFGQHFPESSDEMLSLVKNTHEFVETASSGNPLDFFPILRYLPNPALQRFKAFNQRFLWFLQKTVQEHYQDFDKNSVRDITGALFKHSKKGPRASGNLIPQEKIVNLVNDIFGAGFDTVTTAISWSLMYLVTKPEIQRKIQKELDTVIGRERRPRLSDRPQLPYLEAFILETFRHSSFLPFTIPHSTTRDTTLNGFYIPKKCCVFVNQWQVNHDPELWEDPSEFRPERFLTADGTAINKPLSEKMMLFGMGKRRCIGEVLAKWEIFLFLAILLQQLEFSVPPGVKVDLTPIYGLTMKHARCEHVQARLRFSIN

[6] = target: T2, Cytochrome P450 2A6 (Homo sapiens, UniProt P11509); experiment: Inhibition of CYP2A6 in human liver microsomes using coumarin as substrate after 10 mins by LC-MS/MS analysis; assay type: ADME
T2 sequence (P11509 whole entry): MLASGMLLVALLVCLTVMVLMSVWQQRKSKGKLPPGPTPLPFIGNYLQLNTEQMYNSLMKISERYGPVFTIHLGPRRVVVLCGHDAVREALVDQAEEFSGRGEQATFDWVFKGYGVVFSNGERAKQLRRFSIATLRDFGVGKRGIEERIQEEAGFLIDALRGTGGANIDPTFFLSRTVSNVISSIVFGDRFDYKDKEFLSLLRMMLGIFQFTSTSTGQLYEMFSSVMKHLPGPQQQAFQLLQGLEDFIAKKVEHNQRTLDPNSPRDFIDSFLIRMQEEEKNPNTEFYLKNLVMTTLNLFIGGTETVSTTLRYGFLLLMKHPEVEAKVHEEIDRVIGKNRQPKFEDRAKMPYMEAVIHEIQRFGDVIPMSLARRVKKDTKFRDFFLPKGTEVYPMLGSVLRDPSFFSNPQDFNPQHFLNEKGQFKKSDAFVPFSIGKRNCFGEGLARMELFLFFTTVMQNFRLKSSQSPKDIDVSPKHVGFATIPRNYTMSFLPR

[7] = target: T3, Cytochrome P450 2C8 (Homo sapiens, UniProt P10632); experiment: Inhibition of CYP2C8 in human liver microsomes using amodiaquine as substrate after 10 mins by LC-MS/MS analysis; assay type: ADME
T3 sequence (P10632 whole entry): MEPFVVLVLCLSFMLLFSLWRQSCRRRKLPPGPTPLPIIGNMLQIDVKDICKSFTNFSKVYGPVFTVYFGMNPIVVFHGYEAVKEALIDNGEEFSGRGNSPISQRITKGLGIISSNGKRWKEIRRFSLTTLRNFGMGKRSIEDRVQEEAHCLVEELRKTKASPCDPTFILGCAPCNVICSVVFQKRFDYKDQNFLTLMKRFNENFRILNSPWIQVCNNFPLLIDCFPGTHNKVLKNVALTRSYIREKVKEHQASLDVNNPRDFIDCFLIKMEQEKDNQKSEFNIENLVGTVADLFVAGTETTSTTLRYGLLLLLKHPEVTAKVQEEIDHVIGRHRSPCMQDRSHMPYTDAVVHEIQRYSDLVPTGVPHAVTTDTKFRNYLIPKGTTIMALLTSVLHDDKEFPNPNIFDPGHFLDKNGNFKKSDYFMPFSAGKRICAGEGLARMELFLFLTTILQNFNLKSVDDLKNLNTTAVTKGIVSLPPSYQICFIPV

[8] = target: Cytochrome P450 2C9 (Homo sapiens, UniProt P11712); experiment: Inhibition of CYP2C9 in human liver microsomes using diclofenac as substrate after 10 mins by LC-MS/MS analysis; assay type: ADME
Chain of Cytochrome P450 2C9 (P11712 whole entry): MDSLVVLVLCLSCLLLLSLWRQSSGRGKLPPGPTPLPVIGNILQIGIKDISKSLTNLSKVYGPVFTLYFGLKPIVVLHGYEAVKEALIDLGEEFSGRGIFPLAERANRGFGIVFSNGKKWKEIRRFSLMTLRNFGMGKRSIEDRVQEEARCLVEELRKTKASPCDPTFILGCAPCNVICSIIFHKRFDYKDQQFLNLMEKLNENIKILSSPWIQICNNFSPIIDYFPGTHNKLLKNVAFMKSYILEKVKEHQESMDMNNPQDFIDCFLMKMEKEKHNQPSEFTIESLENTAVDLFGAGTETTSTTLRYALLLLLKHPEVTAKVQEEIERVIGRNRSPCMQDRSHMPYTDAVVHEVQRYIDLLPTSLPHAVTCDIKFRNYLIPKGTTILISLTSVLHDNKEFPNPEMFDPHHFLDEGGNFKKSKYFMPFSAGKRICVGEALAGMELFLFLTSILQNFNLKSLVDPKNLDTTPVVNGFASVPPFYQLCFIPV

[9] = target: Cytochrome P450 2C19 (Homo sapiens, UniProt P33261); experiment: Inhibition of CYP2C19 in human liver microsomes using (S)-mephenytoin as substrate after 10 mins by LC-MS/MS analysis; assay type: ADME
Chain of Cytochrome P450 2C19 (P33261 whole entry): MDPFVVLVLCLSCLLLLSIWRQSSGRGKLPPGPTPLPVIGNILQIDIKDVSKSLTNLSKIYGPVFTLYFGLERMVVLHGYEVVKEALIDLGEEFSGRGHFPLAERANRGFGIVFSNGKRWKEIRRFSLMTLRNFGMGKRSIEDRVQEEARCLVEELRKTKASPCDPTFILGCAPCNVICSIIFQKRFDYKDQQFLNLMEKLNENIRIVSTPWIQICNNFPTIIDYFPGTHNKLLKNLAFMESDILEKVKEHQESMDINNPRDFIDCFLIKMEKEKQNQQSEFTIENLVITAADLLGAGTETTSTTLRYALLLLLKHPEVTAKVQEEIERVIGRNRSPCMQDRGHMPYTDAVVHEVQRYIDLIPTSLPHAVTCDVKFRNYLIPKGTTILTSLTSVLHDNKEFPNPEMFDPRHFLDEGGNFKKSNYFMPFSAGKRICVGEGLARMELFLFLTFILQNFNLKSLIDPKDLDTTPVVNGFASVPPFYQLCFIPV

[10] = target: Cytochrome P450 2D6 (Homo sapiens, UniProt P10635); experiment: Inhibition of CYP2D6 in human liver microsomes using bufuralol as substrate after 10 mins by LC-MS/MS analysis; assay type: ADME
Chain of Cytochrome P450 2D6 (P10635 whole entry): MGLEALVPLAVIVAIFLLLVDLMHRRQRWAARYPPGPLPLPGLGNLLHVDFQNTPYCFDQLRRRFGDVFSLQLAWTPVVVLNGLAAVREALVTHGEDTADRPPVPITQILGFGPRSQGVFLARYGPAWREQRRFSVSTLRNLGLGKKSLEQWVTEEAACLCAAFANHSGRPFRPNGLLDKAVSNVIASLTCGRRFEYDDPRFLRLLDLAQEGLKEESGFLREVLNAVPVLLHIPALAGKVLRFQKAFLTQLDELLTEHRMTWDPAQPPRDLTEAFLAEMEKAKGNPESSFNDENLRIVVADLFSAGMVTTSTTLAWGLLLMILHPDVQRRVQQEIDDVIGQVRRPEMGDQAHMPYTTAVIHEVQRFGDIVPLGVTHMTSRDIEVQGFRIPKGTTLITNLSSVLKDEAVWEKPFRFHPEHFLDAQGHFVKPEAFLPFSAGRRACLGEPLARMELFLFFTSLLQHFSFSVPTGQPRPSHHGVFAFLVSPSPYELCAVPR

[11] = target: Cytochrome P450 3A4 (Homo sapiens, UniProt P08684); experiment: Inhibition of CYP3A4 in human liver microsomes using midazolam as substrate after 10 mins by LC-MS/MS analysis; assay type: ADME
Chain of Cytochrome P450 3A4 (P08684 whole entry): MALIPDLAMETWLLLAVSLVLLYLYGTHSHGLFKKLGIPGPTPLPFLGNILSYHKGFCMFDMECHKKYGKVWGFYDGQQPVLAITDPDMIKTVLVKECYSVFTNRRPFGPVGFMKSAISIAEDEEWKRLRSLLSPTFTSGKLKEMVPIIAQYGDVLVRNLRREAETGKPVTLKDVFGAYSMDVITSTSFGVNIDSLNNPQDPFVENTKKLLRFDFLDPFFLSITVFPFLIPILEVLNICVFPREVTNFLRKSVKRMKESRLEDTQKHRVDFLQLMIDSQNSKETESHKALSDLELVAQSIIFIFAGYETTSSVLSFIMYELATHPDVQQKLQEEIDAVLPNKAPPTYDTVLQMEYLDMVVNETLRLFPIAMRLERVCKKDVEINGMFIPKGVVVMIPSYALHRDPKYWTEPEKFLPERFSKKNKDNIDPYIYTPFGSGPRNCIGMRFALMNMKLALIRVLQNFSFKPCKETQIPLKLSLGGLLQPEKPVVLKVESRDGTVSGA

[12] = […] of CYP450 in human liver microsomes as substrate after 10 mins by LC-MS/MS analysis; assay type: ADME
[13] = Permeability of the compound at pH 7.4 by PAMPA; assay type: physicochemical; settings: read-out: permeability
[14] = tested on: P-gp; experiment: Substrate activity at P-gp (unknown origin) assessed as efflux ratio; assay type: ADME; settings: human, not told
[15] = target: Voltage-gated inwardly rectifying potassium channel KCNH2 (Homo sapiens, UniProt Q12809); experiment: Inhibition of human ERG
Chain of Voltage-gated inwardly rectifying potassium channel KCNH2 (Q12809 whole entry): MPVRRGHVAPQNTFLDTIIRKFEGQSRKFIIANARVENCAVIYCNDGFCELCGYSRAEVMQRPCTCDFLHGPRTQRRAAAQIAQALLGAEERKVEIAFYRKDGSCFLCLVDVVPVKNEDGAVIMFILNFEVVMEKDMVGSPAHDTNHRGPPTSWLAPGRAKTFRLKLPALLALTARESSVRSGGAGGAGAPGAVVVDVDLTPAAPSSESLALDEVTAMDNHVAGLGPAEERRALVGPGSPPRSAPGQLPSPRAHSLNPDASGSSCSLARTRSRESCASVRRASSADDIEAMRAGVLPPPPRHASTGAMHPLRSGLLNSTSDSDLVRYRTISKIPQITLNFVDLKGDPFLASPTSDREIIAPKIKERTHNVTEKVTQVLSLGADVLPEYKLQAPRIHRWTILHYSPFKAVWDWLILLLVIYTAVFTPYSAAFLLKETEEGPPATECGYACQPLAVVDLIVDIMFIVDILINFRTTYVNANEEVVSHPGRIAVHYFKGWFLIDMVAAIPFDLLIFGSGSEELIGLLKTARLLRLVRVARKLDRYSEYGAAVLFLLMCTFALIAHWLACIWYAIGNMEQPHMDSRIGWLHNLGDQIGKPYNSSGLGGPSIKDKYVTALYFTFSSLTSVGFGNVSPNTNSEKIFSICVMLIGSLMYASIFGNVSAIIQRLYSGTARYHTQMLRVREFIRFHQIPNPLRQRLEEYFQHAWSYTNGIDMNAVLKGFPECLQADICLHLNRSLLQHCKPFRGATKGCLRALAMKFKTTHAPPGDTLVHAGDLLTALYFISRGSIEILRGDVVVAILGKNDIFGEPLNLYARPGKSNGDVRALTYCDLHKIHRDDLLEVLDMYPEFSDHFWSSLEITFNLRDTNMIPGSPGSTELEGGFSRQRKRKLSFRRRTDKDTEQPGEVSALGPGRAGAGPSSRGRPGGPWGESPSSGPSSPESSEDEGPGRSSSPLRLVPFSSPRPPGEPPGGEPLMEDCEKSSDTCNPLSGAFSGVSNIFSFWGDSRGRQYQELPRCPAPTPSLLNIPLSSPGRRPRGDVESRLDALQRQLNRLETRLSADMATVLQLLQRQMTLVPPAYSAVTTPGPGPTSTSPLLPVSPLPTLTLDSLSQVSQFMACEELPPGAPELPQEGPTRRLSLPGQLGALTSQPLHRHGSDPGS

[16] = tested on: Salmonella typhimurium; experiment: Genotoxicity in Salmonella typhimurium by Ames test; assay type: toxicity; settings: salmonella enterica subsp. enterica serovar typhimurium
[17] = Half life in rat at 0.35 mg/kg, iv; assay type: ADME, organism-based; settings: in vivo
[18] = Half life in monkey at 0.5 mg/kg, iv; assay type: ADME, organism-based, Macaca mulatta; settings: rhesus monkey, in vivo
[19] = Clearance in rat at 0.35 mg/kg, iv after 24 hrs; assay type: ADME, organism-based; settings: in vivo
[20] = Clearance in monkey at 0.5 mg/kg, iv after 24 hrs; assay type: ADME, organism-based, Macaca mulatta; settings: rhesus monkey, in vivo
[21] = Volume of distribution at steady state in rat at 0.35 mg/kg, iv after 24 hrs; assay type: ADME, organism-based; settings: in vivo, read-out: Vdss
[22] = Volume of distribution at steady state in monkey at 0.5 mg/kg, iv after 24 hrs; assay type: ADME, organism-based, Macaca mulatta; settings: rhesus monkey, in vivo, read-out: Vdss
[23] = AUC in rat at 0.35 mg/kg, iv; assay type: ADME, organism-based; settings: in vivo
[24] = AUC in rat at 10 mg/kg, po; assay type: ADME, organism-based; settings: in vivo
[25] = AUC in monkey at 0.5 mg/kg, iv; assay type: ADME, organism-based, Macaca mulatta; settings: rhesus monkey, in vivo
[26] = AUC in monkey at 10 mg/kg, po; assay type: ADME, organism-based, Macaca mulatta; settings: rhesus monkey, in vivo
[27] = Cmax in rat at 10 mg/kg, po; assay type: ADME, organism-based; parameters: dose 10 mg/kg, route oral; settings: in vivo
[28] = Cmax in monkey at 10 mg/kg, po; assay type: ADME, organism-based, Macaca mulatta; parameters: dose 10 mg/kg, route oral; settings: rhesus monkey, in vivo
[29] = Oral bioavailability in rat at 10 mg/kg; assay type: ADME, organism-based; settings: in vivo
[30] = Oral bioavailability in monkey at 10 mg/kg; assay type: ADME, organism-based, Macaca mulatta; settings: rhesus monkey, in vivo
[31] = tested on: Rattus norvegicus; experiment: Ex vivo receptor occupancy at mGluR5 in Sprague-Dawley rat brain po administered daily for 4 days in presence of [3H]-MPEPy by liquid scintillation counting method; assay type: functional, organism-based
[32] = tested on: Rattus norvegicus; experiment: Ex vivo receptor occupancy at mGluR5 in Sprague-Dawley rat brain at 0.3 mg/kg, po administered daily for 4 days in presence of [3H]-MPEPy by liquid scintillation counting method relative to control; assay type: functional
[33] = tested on: Rattus norvegicus; experiment: Antidepressant activity in Wistar rat assessed as decrease in immobility time at 0.3 to 1 mg/kg, po administered 15 mins post training session from day 2 to day 6 measured for 5 mins by forced swimming test; assay type: functional, organism-based
[34] = tested on: Rattus norvegicus; experiment: Toxicity in rat at 100 mg/kg, po qd administered via gavage for 14 days; assay type: organism-based; settings: in vivo, 336 h
[35] = Half life in rat at 1 mg/kg, iv; assay type: ADME, organism-based; settings: in vivo
[36] = Clearance in rat at 1 mg/kg, iv after 24 hrs; assay type: ADME, organism-based; settings: in vivo
[37] = Volume of distribution at steady state in rat at 1 mg/kg, iv after 24 hrs; assay type: ADME, organism-based; settings: in vivo, read-out: Vdss
[38] = AUC in rat at 1 mg/kg, iv; assay type: ADME, organism-based; settings: in vivo
[39] = tested on: Rattus norvegicus; experiment: Ex vivo receptor occupancy at mGluR5 in Sprague-Dawley rat brain at 1 mg/kg, po administered daily for 4 days in presence of [3H]-MPEPy by liquid scintillation counting method relative to control; assay type: functional

SMILES	IC50 [1] [nM]	remaining at 0.5 h, 1 µM [2] [%]	remaining at 0.5 h, 1 µM [3] [%]	solubility [4] [µg/mL]	IC50 [5] [µM]	IC50 [6] [µM]	IC50 [7] [µM]	IC50 [8] [µM]	IC50 [9] [µM]	IC50 [10] [µM]	IC50 [11] [µM]	Activity [12]	Papp [13] [×10⁻⁶ cm/s]	efflux ratio [14]	IC50 [15] [µM]	Activity [16]	half-life [18] [min]	clearance [20] [mL/min/kg]	Vd [22] [L/kg]	AUC [24] [ng·h/mL]	also measured
O=C(c1ccccc1)N1CCc2oc(-c3ccc(F)cn3)nc2C1	54	91 to 97	91 to 97	16 (≈ 49.5 µM)	> 50	> 50	> 50	> 50	> 50	> 50	> 50	Not Active	34.5	1.1	64	Non-Toxic	288	4.2	1.6	37400	half-life [17]: 126 min; clearance [19]: 4.6 mL/min/kg; Vd [21]: 0.73 L/kg; AUC [23]: 1290 ng·h/mL; AUC [25]: 2060 ng·h/mL; AUC [26]: 57100 ng·h/mL; Cmax [27]: 2750 ng/mL; Cmax [28]: 3900 ng/mL; bioavailability [29]: 102%; bioavailability [30]: 139%; Activity [31]: Dose-dependent effect; Occ [32]: 50%; Activity [33]: Active; Activity [34]: Non-Toxic
O=C(c1cc(F)cc(Cl)c1)N1CCc2oc(-c3ccc(F)cn3)nc2C1	38	91 to 97	91 to 97	6 (≈ 16 µM)	> 50	> 50	> 50	> 50	> 50	> 50	> 50	Not Active	37.1	0.9	19	Non-Toxic	966	1.7	2.1	34500	half-life [35]: 534 min; clearance [36]: 3.8 mL/min/kg; Vd [37]: 2.4 L/kg; AUC [25]: 5090 ng·h/mL; AUC [26]: 62400 ng·h/mL; AUC [38]: 4340 ng·h/mL; Cmax [27]: 1730 ng/mL; Cmax [28]: 2880 ng/mL; bioavailability [29]: 80%; bioavailability [30]: 61%; Activity [31]: Dose-dependent effect; Occ [39]: 48%
